Like-named read-outs stand apart in the source and are kept apart here.
Test system: human melanocytes of the SKMel type
Experiment: Depigmentation: melanin production by melanocytes in culture, melanin content by spectrophotometry
Format: cell-based
Settings: for Eff./Ref. to 5 μM (relative activity with respect to kojic acid at the same concentration): kojic acid = 1; for activity at 5 µM: SK-MEL3, 72 h, read-out: Resid. Pig. (%) (percentage of residual pigmentation); for residual pigmentation percentage: 100 μM
Experimental: Various synthesized molecules were tested in order to determine their depigmenting power. The idea was to evaluate the effect of each of them on the production of melanin by melanocytes maintained in a culture medium.
For these tests, 2 lines of melanocytes were cultivated, human melanocytes of the SKMel type on the one hand and a murine line of the B16F10 type on the other hand. Here, we only show the results obtained on the human line.
The melanin content was determined by spectrophotometry, after 3 days of incubation in the presence of the molecule to be tested and cell lysis.
Kojic acid, a well-known depigmenting agent is used as a reference for making a hierarchy of the results.
For each measurement, the analyses were repeated. The indicated value corresponds to the calculated average. When the experiments are repeated, the average variation coefficient of the residual pigmentation percentage is of the order of 3% (comprised between 1.5% and 6% (for 3 tests).
This list is neither exhaustive nor limiting and the same type of results was obtained for the other molecules.

[1] = 5 μM, human line SKMel, 3 days of incubation, melanin vs control culture (cells alone)

Compound	Eff./Ref. to 5 μM (relative activity with respect to kojic acid at the same concentration) (5 μM, human line SKMel)	activity at 5 µM [1] [%]	activity at 5 µM (Homo sapiens) [%]	residual pigmentation percentage (human line SKMel) [%]
C[S+]([O-])CCCCN=C=S (stereo not shown)	22	34	–	–
[O-][S+](CCCCN=C=S)c1ccccc1 (stereo not shown)	10	71	–	–
CC[S+]([O-])CCCCN=C=S (stereo not shown)	12	–	63	–
CS(=O)(=O)CCCCN=C=S	15	54	–	–
CC(=O)CCCCN=C=S	5	84	–	–
C[S+]([O-])CCCCNC(=S)NCCCC[S+](C)[O-] (stereo not shown) [Example 9, 1,3-bis-(4-(methylsulfinyl)butyl)-thiourea]	27	20	–	14
O=c1cc(CO)occ1O [kojic acid, Kojic acid, reference compound]	1	97	–	73
C[S+]([O-])CCCCN (stereo not shown) [reference compound]	11	67	–	–
C1CCNCC1 [reference compound]	17	50	–	–
C1COCCN1 [reference compound]	5	86	–	–

Reference: patent US20130142739A1, “PROCESS FOR THE SYNTHESIS OF ISOTHIOCYANATES AND DERIVATIVES THEREOF AND USES OF SAME” (Auriga International, priority 2010, published 2013)
